21 molecules from patent publication EP0446604A2, “Pyridine and related aza heterocycle derivatives as cardiovascular agents” (AMERICAN CYANAMID COMPANY, priority 1990, dated 1991) can be followed below.

The test system of test [1] is spontaneously hypertensive rats of the Okamoto strain. Put plainly: Hypotensive activity in spontaneously hypertensive rats (method of Chan and Poorvin). It is filed as in vivo. As to conditions: by gavage, 100 mg/kg or less, second identical dose 24 hours later, MABP measured 28 hours after initial dose, average MABP of the rats used 160±1.5 mm of mercury. On the procedure:
The novel compounds of the present invention are active hypotensive agents and were tested for hypotensive activity by the method of P.S. Chan and D. Poorvin, Clinical and Experimental Hypertension, 1 (6), 817-830 (1979). Male, 16 week old, spontaneously hypertensive rats of the Okamoto strain, from Taconic Farms, Germantown, New York, having an average mean arterial blood pressure of 160±1.5 mm of mercury, were used in the test. One to four rats were used per test compound. A rat is dosed by gavage with a test compound suspended in 2% pre-boiled starch at a concentration of 50 mg/ml, at a dose of 100 mg/kg of body weight or less, with 0.9% sodium chloride loading at a dose of 25 ml/kg of body weight. A second identical dose of the test compound, without sodium chloride loading is given 24 hours later. At 28 hours after the initial dose the mean arterial blood pressure (MABP) is measured. The procedure is repeated in a second and third rat when necessary. The results of this test on representative compounds of the present invention appear below in Table II.

Test [2] deals with Male mice of the Swiss Webster Strain. In words: Potassium chloride-induced arrhythmia in anesthetized mice (survival). Conditions: Mus musculus, iv, Dose = 10 mg/kg i.v.; potassium chloride 62.5 mg/kg i.v. bolus 5, 15 or 30 minutes after drug; observed 15 minutes; read-out: KCl #Mice Surviving #Mice Tested (converted). In kind it is in vivo. An excerpt:
(§1) Intravenous administration of high doses of calcium or potassium chloride in animals produces cardiac arrhythmias, cardiac fibrillation and cardiac arrest. Any agent that can prevent these events is considered an antiarrhythmic/antifibrillatory agent. (Meth. and Find Exptl. Clin Pharmacol.2:223-252(1980); Pharmacol, Ther. 24:401-433 (1984); Experimental Cardiac and Antiarrhythmic Drugs, L. Szekeres and Gy. J. Dapp, Akademiai Kiado Preso, Budapest, 9-448 (1971).)
(§2) The method employed is as follows: Male mice of the Swiss Webster Strain (Charles River, Wilmington, MA) weighing 25-35 g are anesthetized with ethyl carbamate (urethan) (1.5g/kg body weight i.p.). A 25-gauge needle attached to PE-20 tubing is inserted into a caudal vein for drug administration. The lead II ECG is recorded by needle electrodes placed subcutaneously in the limbs. All data is collected on a Gould Brush recorder. Animals are observed 5 minutes before drug administration. A 5, 15, or 30 minute period following drug administration is allowed before the bolus injection of calcium chloride, 200 mg/kg i.v. or potassium chloride, 62.5 mg/kg i.v. Control mice receive 4 ml/kg of 0.9% sodium chloride i.v. Mice are observed an additional 15 minutes for arrhythmias, fibrillation, survival or death. Any compound at a dose of less than 20 mg/kg i.v. that protects 3 out of 6 mice from cardiac death in either the potassium or calcium chloride test, is considered active.

Test [3] shares this test system. In words: Calcium chloride-induced arrhythmia in anesthetized mice (survival). It is filed as in vivo. Conditions: Mus musculus, iv, Dose = 10 mg/kg i.v.; calcium chloride 200 mg/kg i.v. bolus 5, 15 or 30 minutes after drug; observed 15 minutes; read-out: CaCl2 #Mice Surviving #Mice Tested (converted).
Description: as §1, §2

Test [4] has as its target T1, thromboxane synthetase enzyme (Rattus norvegicus, UniProt P49430).
T1 construct: from tissue; host or cells: washed blood platelets from Okamoto-Aoki spontaneously hypertensive rats (SHR)
T1 sequence (P49430 1-533): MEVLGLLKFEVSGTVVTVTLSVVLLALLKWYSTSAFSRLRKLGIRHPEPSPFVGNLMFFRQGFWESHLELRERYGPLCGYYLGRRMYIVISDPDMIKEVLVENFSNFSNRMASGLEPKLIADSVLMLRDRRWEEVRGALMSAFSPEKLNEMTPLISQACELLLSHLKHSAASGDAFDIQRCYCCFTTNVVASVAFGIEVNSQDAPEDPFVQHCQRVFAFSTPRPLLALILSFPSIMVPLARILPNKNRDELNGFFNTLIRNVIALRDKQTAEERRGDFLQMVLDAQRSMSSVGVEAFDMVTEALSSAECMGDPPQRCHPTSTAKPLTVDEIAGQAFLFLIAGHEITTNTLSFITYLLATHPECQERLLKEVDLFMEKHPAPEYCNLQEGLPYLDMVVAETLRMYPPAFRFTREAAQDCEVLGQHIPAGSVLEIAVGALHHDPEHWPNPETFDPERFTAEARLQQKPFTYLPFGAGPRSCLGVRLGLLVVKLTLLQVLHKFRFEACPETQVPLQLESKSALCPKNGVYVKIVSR
In words: Inhibition of thromboxane (TXB2) formation in washed rat platelets, TXB2 radioimmunoassay. In kind it is biochemical, Okamoto-Aoki spontaneously hypertensive rats (SHR). Conditions: Concentration 1x10^-4M, platelet suspension incubated 10 minutes at 37 °C. Here is the method:
Under urethan anesthesia, […] of arterial blood from Okamoto-Aoki spontaneously hypertensive rats (SHR) (Taconic Farms, Germantown, NY) between 19 and 24 weeks in age is collected in one ml of 3.2% sodium citrate in a polystyrene tube. The blood is diluted with 3 ml of cold saline and centrifuged at room temperature for 15 minutes at 460xg. The platelet rich plasma (PRP) is separated. The platelets are isolated by centrifuging the PRP for 10 minutes at 1060xg and are washed in 4 ml of cold oxygenated Krebs phosphate buffer, pH 7.4. The chilled platelets, recovered from centrifuging at 800xg for 10 minutes, are resuspended in oxygenated Krebs phosphate buffer and diluted to contain 4.5-6.0 x 10⁴ platelets/µ1. The inhibition of thromboxane (TX) formation is studied by determining the concentration of thromboxane B₂ (TXB₂), the stable hydrolysis product of TXA₂. Assay samples, prepared on ice, contain 200 µ1 platelet suspension, 50 µ1 saline, and 50 µ1 vehicle (saline) or drug under study. The samples are incubated for 10 minutes at 37 °C in a metabolic shaker. The reaction is terminated by immersing the tubes in an ice bath and adding 50 µl of 0.5M citric acid. The samples are centrifuged for 10 minutes in a refrigerated centrifuge and the supernatants thus obtained are decanted and stored at -20 °C. The TXB₂ content for each sample is determined by a direct radioimmunoassay (RIA) utilizing a TXB₂ specific RIA kit purchased from New England Nuclear, Boston, MA and expressed as pg TXB₂ formed per minute per sample, from which the percent inhibition of TXB₂ formation is calculated.

Where a name gives a salt, the structure may show the parent alone.

Turning to `Cc1ccc(C#N)c(NCCCCCn2ccnc2)n1` [Example 90, 2-[[5-(1H-Imidazol-1-yl)pentyl]amino]-6-methyl-3-pyridinecarbonitrile], the “Avg. MABP in mm Hg (No. of Rats)” value in test [1] is given as 116 (2) mm Hg. For the same molecule, the responders at 10 mg/kg is 50% in test [2] and 0% in test [3].

In the case of `c1ccc2c(NCCCn3ccnc3)nccc2c1` [Example 14, N-[3-(1H-Imidazol-1-yl)propyl]-1-isoquinolinamine], the “Avg. MABP in mm Hg (No. of Rats)” value in test [1] is 121 (3) mm Hg. In test [4], this molecule displayed an inhibition at 100 µM of 84%.

As for `N#Cc1cccnc1NCCCn1ccnc1` [Example 4, 2-[[3-(1H-Imidazol-1-yl)propyl]amino]-3-pyridinecarbonitrile], the “Avg. MABP in mm Hg (No. of Rats)” value in test [1] was 117 (4) mm Hg. The results for the responders at 10 mg/kg in test [2] and in test [3] were 16.7% and 66.7%, respectively. Moreover, in test [4], 100 µM produced 93% inhibition.

As to `c1cn(CCCNc2ccc3sccc3n2)cn1` [Example 62, N-[3-(1H-Imidazol-1-yl)propyl]thieno[3,2-b]-pyridin-5-amine], in test [1], the “Avg. MABP in mm Hg (No. of Rats)” value is 105 (2) mm Hg. Further, at 100 µM the inhibition in test [4] was 91%.

In the case of `c1cncc(CCCCNc2nccc3ccccc23)c1` [Example 105, N-[4-(3-Pyridinyl)butyl]-1-isoquinolinamine, dihydrochloride], the values for the responders at 10 mg/kg in test [2] and in test [3] were 66.7% and 50%, respectively. In test [4], this molecule yielded an inhibition at 100 µM of 97%.

As to `CC(=O)c1cc(C#N)c(NCCCn2ccnc2)nc1C` [Example 12, 5-Acetyl-2-[[3-(1H-Imidazol-1-yl)propyl]amino]-6-methyl-3-pyridinecarbonitrile], the responders at 10 mg/kg in test [2] was 66.7%; in test [3], 16.7%. Also, the inhibition at 100 µM in test [4] came to 96%.

With `Cc1ccc(C#N)c(NCCCn2ccnc2)n1` [Example 3, 2-[[3-(1H-Imidazol-1-yl)propyl]amino]-6-methyl-3-pyridinecarbonitrile], the “Avg. MABP in mm Hg (No. of Rats)” value in test [1] is 80 (2) mm Hg. In test [4], the inhibition at 100 µM amounted to 79%.

Consider `COc1ccc2nc(NCCCn3ccnc3)cc(C)c2c1` [Example 21, N-[3-(1H-Imidazol-1-yl)propyl]-6-methoxy-4-methyl-2-quinolinamine], for which, in test [1], the “Avg. MABP in mm Hg (No. of Rats)” value is on record as 110 (2) mm Hg. The inhibition at 100 µM in test [4] is 97%.

Turning to `c1ccc2c(c1)nc(NCCCCn1ccnc1)c1ccccc12` [Example 104, N-[4-(1H-Imidazol-1-yl)butyl]-6-phenanthridinamine], the “Avg. MABP in mm Hg (No. of Rats)” value in test [1] was 93 (1) mm Hg.

Regarding `Cc1cc(NCCCCn2ccnc2)nc2ccccc12` [Example 101, N-[4-(1H-Imidazol-1-yl)butyl]-4-methyl-2-quinolinamine], the “Avg. MABP in mm Hg (No. of Rats)” value in test [1] is listed as 96 (2) mm Hg.

`COc1ccc2nc(NCCCCc3cccnc3)cc(C)c2c1` [Example 106, 6-Methoxy-4-methyl-N-[4-(3-pyridinyl)butyl]-2-quinolinamine]: in test [1], the “Avg. MABP in mm Hg (No. of Rats)” value is given as 120 (2) mm Hg. Also, testing at 100 µM in test [4] gave an inhibition of 97%.

For the molecule `N#Cc1cc2ccccc2nc1NCCCn1ccnc1` [Example 82, 2-[[3-(1H-Imidazol-1-yl)propyl]amino]-3-quinolinecarbonitrile], the “Avg. MABP in mm Hg (No. of Rats)” value in test [1] was 94 (2) mm Hg.

As for `Cc1cc(NCCCn2ccnc2)nc2ccccc12` [Example 6, N-[3-(1H-Imidazol-1-yl)propyl]-4-methyl-2-quinolinamine], in test [1], the “Avg. MABP in mm Hg (No. of Rats)” value is reported as 100 (3) mm Hg. Besides, in test [4], the inhibition at 100 µM was found to be 98%.

As for `O=[N+]([O-])c1ccc(NCCCn2ccnc2)nc1` [Example 1, N-[3-(1H-Imidazol-1-yl)propyl]-5-nitro-2-pyridinamine,(Z)-2-butenedioate (1:1)], in test [1] (100 mg/kg), the “Avg. MABP in mm Hg (No. of Rats)” value is listed as 121 (4) mm Hg.

On to `Cc1cc(NCCCCc2cccnc2)nc2ccccc12` [Example 103, 4-Methyl-N-4-(3-pyridinylbutyl)-2-quinolinamine, dihydrochloride], for which the “Avg. MABP in mm Hg (No. of Rats)” value in test [1] is listed as 87 (2) mm Hg.

On to `Cc1ccc(C#N)c(NCCCCc2cccnc2)n1` [Example 108, 6-Methyl-2-[[4-(3-pyridinyl)butyl]amino]-3-pyridinecarbonitrile], for which the responders at 10 mg/kg in test [2] is 83.3%; in test [3], 66.7%. The same molecule showed an inhibition at 100 µM in test [4] of 96%.

For the molecule `O=[N+]([O-])c1ccc(NCCCn2ccnc2)nc1` [Example 11, N-[3-(1H-imidazol-1-yl)propyl]-5-nitro-2-pyridinamine], the “Avg. MABP in mm Hg (No. of Rats)” value in test [1] (100 mg/kg) was 119 (2) mm Hg. The responders at 10 mg/kg is 50% in test [2] and 0% in test [3].

Take `Cc1cc(NCCC(C)n2ccnc2)nc2ccccc12` (stereo not shown) [Example 87, N-[3-(1H-Imidazol-1-yl)butyl]-4-methyl-2-quinolinamine]: the “Avg. MABP in mm Hg (No. of Rats)” value in test [1] was 111 (2) mm Hg.

Turning to `Cc1cc(NCCCc2cccnc2)nc2ccccc12.Cl.Cl` [Example 98, 4-Methyl-N-[3-(3-pyridinyl)propyl]-2-quinolinamine, dihydrochloride], the “Avg. MABP in mm Hg (No. of Rats)” value in test [1] is recorded as 95 (2) mm Hg. The responders at 10 mg/kg in test [2] and in test [3] was 83.3% throughout.

With `Cc1ccc2ccc(NCCCn3ccnc3)nc2n1` [Example 38, N-[3-(1H-Imidazol-1-yl)propyl]-7-methyl-1,8-naphthyridin-2-amine,(E)-2-butenedioate (1:2)], the figures for the responders at 10 mg/kg in test [2] and in test [3] were 66.7% and 33.3%, respectively. Besides, in test [4], the inhibition at 100 µM amounted to 98%.

Consider `Cc1nccc2nc(NCCCn3ccnc3)ccc12` [Example 40, N-[3-(1H-Imidazol-1-yl)propyl]-5-methyl-1,6-naphthyridin-2-amine,(E)-2-butenedioate (2:3)], for which the responders at 10 mg/kg in test [2] is 50%; in test [3], 33.3%. This molecule also returned an inhibition at 100 µM in test [4] of 95%.

One may read the inhibition as how much of the control response was suppressed.
